Here are results for 5 molecules from BindingDB's records for PubMed 2971798 (University of Pennsylvania, 1988).

Bounds are passed on as bounds.

One experiment addresses D(2) dopamine receptor (Canis lupus familiaris, UniProt Q9GJU1).
Experiment [1] has as its target T1, 5-hydroxytryptamine receptor 2C (Canis lupus familiaris, UniProt Q60F97).
T1 sequence (Q60F97 whole entry): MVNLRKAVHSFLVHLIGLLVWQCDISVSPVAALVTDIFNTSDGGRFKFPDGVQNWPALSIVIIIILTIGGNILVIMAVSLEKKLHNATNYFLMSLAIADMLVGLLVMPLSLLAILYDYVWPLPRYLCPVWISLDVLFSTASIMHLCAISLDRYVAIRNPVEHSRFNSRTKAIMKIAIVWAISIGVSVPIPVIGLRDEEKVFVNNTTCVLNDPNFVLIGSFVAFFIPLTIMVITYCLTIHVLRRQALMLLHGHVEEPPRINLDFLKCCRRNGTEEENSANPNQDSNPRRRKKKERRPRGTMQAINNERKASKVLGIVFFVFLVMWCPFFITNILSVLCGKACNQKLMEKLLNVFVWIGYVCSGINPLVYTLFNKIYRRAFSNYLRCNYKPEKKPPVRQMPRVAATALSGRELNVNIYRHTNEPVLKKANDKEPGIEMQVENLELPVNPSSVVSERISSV

The Ki is a measure of affinity in units of concentration, obtained from inhibition or displacement. Higher therefore signals a looser hold on the target.

Sequence of D(2) dopamine receptor (Q9GJU1 whole entry): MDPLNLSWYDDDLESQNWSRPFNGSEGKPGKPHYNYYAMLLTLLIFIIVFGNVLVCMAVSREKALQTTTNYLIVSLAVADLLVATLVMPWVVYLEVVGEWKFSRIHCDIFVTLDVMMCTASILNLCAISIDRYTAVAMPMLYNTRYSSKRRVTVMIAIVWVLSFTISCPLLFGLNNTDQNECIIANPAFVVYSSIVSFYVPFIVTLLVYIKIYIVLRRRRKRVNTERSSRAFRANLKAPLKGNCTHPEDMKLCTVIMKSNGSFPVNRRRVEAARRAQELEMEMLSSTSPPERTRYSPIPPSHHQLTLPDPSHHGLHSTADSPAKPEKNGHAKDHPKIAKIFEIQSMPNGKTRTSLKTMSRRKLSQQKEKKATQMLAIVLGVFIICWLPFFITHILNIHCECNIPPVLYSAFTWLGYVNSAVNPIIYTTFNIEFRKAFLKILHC

For the molecule `NCCc1ccc(O)c(O)c1`, the Ki at D(2) dopamine receptor is > 10 µM. With `O=C(c1ccc(F)cc1)C1CCN(CCn2c(=O)[nH]c3ccccc3c2=O)CC1` [3-(2-{4-[(4-fluorophenyl)carbonyl]piperidin-1-yl}ethyl)-1,2,3,4-tetrahydroquinazoline-2,4-dione], the Ki in experiment [1] is 0.013 µM; on D(2) dopamine receptor, 0.166 µM.

For the molecule `OCCN1CCN(CC/C=C2/c3ccccc3Sc3ccc(C(F)(F)F)cc32)CC1` [(cis) 2-{4-[3-(2-Trifluoromethyl-thioxanthen-9-ylidene)-propyl]-piperazin-1-yl}-ethanol(Flupentixol)], on D(2) dopamine receptor, the Ki came out at 0.03 µM.

On to `CN1CCN2c3ccccc3Cc3ccccc3[C@H]2C1` [MIANSERIN (+)], for which the Ki in experiment [1] came to 0.0028 µM; on D(2) dopamine receptor, 0.161 µM. Take `NCCc1c[nH]c2ccc(O)cc12` [[3H]-5-HT]: the Ki at D(2) dopamine receptor is > 10 µM.
